Measured values: US11840527B2, “Non-fused thiophene derivatives and their uses” (ENYO PHARMA, priority 2018, dated 2023)

What was measured:
[1] = tested on: H1N1 (influenza A/New Caledonia/20/99); test: Antiviral effect on A549 cells infected with H1N1; assay type: cell-based, H1N1 A/New Caledonia/20/99 virus; settings: Influenza A virus, MOI 0.1, 48 h post-infection, MUNANA neuraminidase readout
How it was run: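 A549 cells dosed with test compounds over a concentration range and infected at once with clinical isolate H1N1 A/New Caledonia/20/99 (MOI 0.1) in DMEM with […] TPCK trypsin, 37 °C. At 48 h, supernatant neuraminidase activity measured with MUNANA substrate (1 h, 37 °C); 4-MU fluorescence at ex 365/em 450 nm.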

[2] = target: T1, CISD1 Gene Product (mitoNEET) (Homo sapiens, UniProt Q9NZ45); test: Stability of Fe-S cluster binding of purified NEET protein (absorbance 458 nm); assay type: biochemical
T1 sequence (Q9NZ45 33-108 limits assumed): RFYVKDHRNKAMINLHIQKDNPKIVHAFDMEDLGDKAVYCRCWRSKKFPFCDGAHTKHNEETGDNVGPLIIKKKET
Description: (§1) The modulator effect on the NEET proteins encoded by human CISD1, CISD2, and CISD3 genes by the compounds of the invention has been tested and is reported below. Particularly, the biochemical function of the NEET proteins is measured by the stability of Fe—S cluster binding of the purified NEET proteins.
(§2) The Fe—S cluster binding capacity of NEET proteins is known to be coordinated by four amino-acids in a stretch of 16 (three Cysteine and one Histidine). As the lability of the Fe—S cluster of NEET proteins is sensitive to the environment, cluster stability measurements are one of the measures of interactions of NEET proteins with small molecules and compounds. NEET protein/2Fe-2S cluster stability can be assessed by monitoring the decay in absorbance of its characteristic 458-nm peak (characteristic of the oxidized 2Fe-2S cluster) over time. Each NEET protein (mitoNEET, NAF-1 and Miner 2) was tested for its Fe—S binding in the absence or presence of a compound according to the invention (see table 3 below). The rate of cluster release (time in minutes to achieve 50% loss of bound Fe—S cluster) was compared for each NEET protein in the presence of one of the compounds of the invention (in a 1:3 protein:compound molar ratio) relative to each protein alone.
(§3) At pH 6, all the three NEET proteins (mitoNEET, NAF-1 and Miner 2) have a characteristic rate of loss of the bound Fe—S cluster that can be measured by the decrease of absorbance at wavelength 458 nm over time, using a spectrophotometer. Thus, Bis-Tris buffer (100 mM Bis-Tris pH6, 100 mM Nacl) was used at pH 6 to dilute either DMSO (Blank sample: Bis-Tris Buffer pH 6, 66 μM DMSO), DMSO and one of the three NEET proteins (Control sample: Bis-Tris Buffer pH 6, 66 μM DMSO, 20 μM purified NEET protein) or DMSO, one of the three NEET proteins and a compound of the invention (Test sample: Bis-Tris Buffer pH 6, 66 μM DMSO, 20 μM purified NEET protein, 60 μM compound of the invention).
(§4) A reaction mix containing DMSO diluted in the Bis-Tris Buffer with or without a compound of the invention was prepared. The purified NEET protein was the last component added to the reaction mix which was then aliquoted into 4 replicates in 96 wells plates. The absorbance at wavelength 458 nm was taken at 5 minutes intervals at 37° C. with a spectrofluorimeter. The assay run time for CISD2 gene product (NAF-1) was 500 minutes and 180 minutes for both the CISD 1 gene product (mitoNEET) and the CISD3 gene product (Miner 2).
(§5) In addition to time monitoring, residual bound Fe—S cluster to NEET protein was measured at the final point of the spectrometry assay for each Test sample and compared to the Control sample data (in parenthesis table 3). This residual binding is measured by the differential percentage between the absorbance 458 nm at time zero and the absorbance 458 nm at the end of the experiment (i.e. respectively 500 or 180 minutes as described hereabove), showing the percentage of NEET protein still able to bind Fe—S cluster.
(§6) Analysis of the absorbance enables the time for which 50% loss of bound Fe—S cluster is reached (i.e. a 50% absorbance decrease at 458 nm) for each Test sample and each Control sample (in parenthesis table 3) to be determined. The data are then compared to determine whether the compound of the invention stabilizes or destabilizes the NEET protein/Fe—S cluster binding.
(§7) Stabilisers of Fe—S cluster binding by the NEET proteins slow the release of bound Fe—S (i.e. increase the time needed to reach 50% Fe—S cluster bound loss by more than 25% for the Test sample compared to the Control sample). As illustrated by table 3, at the concentrations tested, stabilisers of CISD1 Gene Product (mitoNEET) are the compounds #9, #18, #26, #2, #1, and #42. Stabilisers of CISD2 Gene Product (NAF-1) are the compounds #2, #1, and #40. Stabilisers of CISD3 Gene Product (Miner2) are the compounds #9, #18, #26, #2, #1, and #42.

[3] = target: T2, CISD2 Gene Product (NAF-1) (Homo sapiens, UniProt Q8N5K1); test: as above; assay type: biochemical; settings: 60 μM compound
T2 sequence (Q8N5K1 57-135 limits assumed): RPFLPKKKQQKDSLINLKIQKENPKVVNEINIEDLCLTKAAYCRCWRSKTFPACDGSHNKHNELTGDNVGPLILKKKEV
Description: as §1, §2, §3, §4, §5, §6, §7

[4] = target: T3, CISD3 Gene Product (Miner2) (Homo sapiens, UniProt P0C7P0); test: as above; assay type: biochemical
T3 sequence (P0C7P0 15-127): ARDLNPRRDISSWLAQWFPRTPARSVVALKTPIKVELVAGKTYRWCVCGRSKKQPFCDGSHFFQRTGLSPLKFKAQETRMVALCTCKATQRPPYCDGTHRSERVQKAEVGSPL
Description: as §1, §2, §3, §4, §5, §6, §7

NFκB = NFκB reporter assay, TNFα stimulation of A549 reporter cells; assay type: cell-based; settings: Homo sapiens; A549 NFκB-NanoLuciferase reporter cells, 4 ng/ml TNFα, 6 hours
From the text: Compounds of the present invention have been tested for their capacity to inhibit NFκB.
The NFκB reporter construct was made by cloning 5 NFκB responsive elements upstream of a NanoLuciferase reporter gene flanked by AAVS1 genomic sequences.
NFκB Responsive element fused with NanoLuciferase and SV40 late Poly(A) signal was amplified from pNL3.2-NFκB-Nluc (Promega) using NFκB-NLUC-F and NFκB-NLUC-R primers and inserted by Infusion (TaKaRa) in AAVS1 SA-2A-puro-pA donor plasmid (Hockemeyer et al, Nat Biotechnol. 2009, 27, 851-7) digested by Sall. pCRISPR AAVS1-T2 expressing a guide RNA (gRNA) to target human AAVS1 (T2 target sequence) was constructed by inserting AAVS1-T2A hybridized primers in pLentiCRISPR v2-blast (Sanjana et al, Nat Methods. 2014, 11, 783-4) digested by Bsmb1.
A549 cells were transfected by the plasmids and puromycine selected for 5 days (1 μg mL-1). Then clones were obtained by limiting dilution and selected to maximize TNFα dependent NFkB-NanoLuciferase induction.
The reporter cells were seeded on a 96-well plate for overnight with DMEM including 10% FBS. Test compounds were added at varying concentrations. The cells then were treated with 4 ng/ml TNFα (Peprotech, ref E251) in DMEM+10% FBS. NanoGlo luciferase assay (Promega) was carried out 6 hours later. Luminescence was measured using a Spark 20M spectrofluorimeter (Tecan). Values were normalized to the luminescence measured in untreated cells.

`O=C(Nc1sc(Cl)c(C2CCCC2)c1C(=O)O)c1ccccc1` [Compound #18, 2-Benzamido-5-chloro-4-cyclopentyl-thiophene-3-carboxylic acid] was tested, and the IC50 [1] was 64.8 nM, the “Residual cluster bound at end of experiment (Percentage Absorbance 458 nm at time zero)” value ([2]; at 180 minutes, 60 μM compound, vehicle control 16%) was 52% (16%) and the “Stabiliser of Fe—S cluster binding (time to 50% loss increased by more than 25% vs control)” value ([2]; at the concentrations tested) was “stabilisers”. For the same molecule, the “Time (in minutes) to achieve 50% loss of bound cluster (Absorbance 458 nm)” value ([2]; pH 6, 37° C., 20 μM protein, 60 μM compound, run time 180 minutes, vehicle control 80) was “during 180 minutes”, the “Residual cluster bound at end of experiment (Percentage Absorbance 458 nm at time zero)” value ([3]; at 500 minutes, vehicle control 3%) was 38% (3%) and the “Time (in minutes) to achieve 50% loss of bound cluster (Absorbance 458 nm)” value ([3]; pH 6, 37° C., 20 μM protein, run time 500 minutes, vehicle control 310) was 240 (310) minutes. The “Residual cluster bound at end of experiment (Percentage Absorbance 458 nm at time zero)” value ([4]; CISD3 gene product, at 180 minutes, 60 μM compound, vehicle control (DMSO) 11%) was 69% (11%), the “Stabiliser of Fe—S cluster binding (time to 50% loss increased by more than 25% vs control)” value ([4]; Miner2, at the concentrations tested) was “Stabilisers” and the “Time (in minutes) to achieve 50% loss of bound cluster (Absorbance 458 nm)” value ([4]; Miner2, pH 6, 37° C., 20 μM protein, 60 μM compound, run time 180 minutes, vehicle control 60) was “during 180 minutes”. For the same molecule, the EC50 (NFκB) was 1100 nM.
